“And” between values parts separate entries of the source, which are not always exact repeats. Equal entries are not always repeated. Inconclusive results and toxic doses are left out. The calls were made as follows: active = survival T/C of 150% or more; inactive = T/C below 125% in these data.
Tested on: P388 leukemia ip, CD2F1 mice, survival T/C
Experiment: NCI In Vivo Anticancer Drug Screen. Data for tumor model P388 Leukemia (intraperitoneal) in CD2F1 (CDF1) mice
Settings: endpoint: median survival time, higher = longer survival
How it was run: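 Mice carrying the transplanted tumor received test compound or vehicle. Survival was recorded in each group, and the value is the treated-group measurement divided by that of the vehicle-treated control group.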

[1] = dose: 15.0 mg/kg/injection, schedule: Q01DX005 (ip), vehicle: saline with Tween-80
[2] = dose: 30.0 mg/kg/injection, schedule: Q01DX005 (ip), vehicle: saline with Tween-80
[3] = dose: 60.0 mg/kg/injection, schedule: Q01DX005 (ip), vehicle: saline with Tween-80
[4] = dose: 120.0 mg/kg/injection, schedule: Q01DX005 (ip), vehicle: saline with Tween-80
[5] = dose: 50.0 mg/kg/injection, schedule: Q01DX005 (ip), vehicle: saline with Tween-80
[6] = dose: 100.0 mg/kg/injection, schedule: Q01DX005 (ip), vehicle: saline with Tween-80
[7] = dose: 200.0 mg/kg/injection, schedule: Q01DX005 (ip), vehicle: saline with Tween-80
[8] = dose: 100.0 mg/kg/injection, schedule: Q01DX009 (ip), vehicle: saline with Tween-80
[9] = dose: 200.0 mg/kg/injection, schedule: Q01DX009 (ip), vehicle: saline with Tween-80
[10] = dose: 400.0 mg/kg/injection, schedule: Q01DX009 (ip), vehicle: saline with Tween-80
[11] = dose: 25.0 mg/kg/injection, schedule: Q01DX005 (ip), vehicle: Klucel (hydroxypropylcellulose) (HPC)
[12] = dose: 50.0 mg/kg/injection, schedule: Q01DX005 (ip), vehicle: Klucel (hydroxypropylcellulose) (HPC)
[13] = dose: 240.0 mg/kg/injection, schedule: Q01DX005 (ip), vehicle: saline with Tween-80
[14] = dose: 12.5 mg/kg/injection, schedule: Q01DX009 (ip), vehicle: saline with Tween-80
[15] = dose: 25.0 mg/kg/injection, schedule: Q01DX009 (ip), vehicle: saline with Tween-80
[16] = dose: 50.0 mg/kg/injection, schedule: Q01DX009 (ip), vehicle: Klucel (hydroxypropylcellulose) (HPC)
[17] = dose: 100.0 mg/kg/injection, schedule: Q01DX009 (ip), vehicle: Klucel (hydroxypropylcellulose) (HPC)
[18] = dose: 200.0 mg/kg/injection, schedule: Q01DX009 (ip), vehicle: Klucel (hydroxypropylcellulose) (HPC)
[19] = dose: 60.0 mg/kg/injection, schedule: Q01DX005 (ip), vehicle: Klucel (hydroxypropylcellulose) (HPC)
[20] = dose: 120.0 mg/kg/injection, schedule: Q01DX005 (ip), vehicle: Klucel (hydroxypropylcellulose) (HPC)
[21] = dose: 240.0 mg/kg/injection, schedule: Q01DX005 (ip), vehicle: Klucel (hydroxypropylcellulose) (HPC)
[22] = dose: 100.0 mg/kg/injection, schedule: Q01DX005 (ip), vehicle: Klucel (hydroxypropylcellulose) (HPC)
[23] = dose: 200.0 mg/kg/injection, schedule: Q01DX005 (ip), vehicle: Klucel (hydroxypropylcellulose) (HPC)
[24] = dose: 100.0 mg/kg/injection, schedule: Q01DX001 (ip), vehicle: Klucel (hydroxypropylcellulose) (HPC)
[25] = dose: 200.0 mg/kg/injection, schedule: Q01DX001 (ip), vehicle: Klucel (hydroxypropylcellulose) (HPC)
[26] = dose: 100.0 mg/kg/injection, schedule: Q04DX003 (ip), vehicle: saline with Tween-80
[27] = dose: 200.0 mg/kg/injection, schedule: Q04DX003 (ip), vehicle: saline with Tween-80
[28] = dose: 400.0 mg/kg/injection, schedule: Q04DX003 (ip), vehicle: saline with Tween-80
[29] = dose: 50.0 mg/kg/injection, schedule: Q01DX009 (ip), vehicle: saline
[30] = dose: 100.0 mg/kg/injection, schedule: Q01DX009 (ip), vehicle: saline
[31] = dose: 200.0 mg/kg/injection, schedule: Q01DX009 (ip), vehicle: saline
[32] = dose: 50.0 mg/kg/injection, schedule: Q01DX009 (ip), vehicle: saline with Tween-80
[33] = dose: 12.5 mg/kg/injection, schedule: Q01DX009 (ip), vehicle: saline
[34] = dose: 25.0 mg/kg/injection, schedule: Q01DX009 (ip), vehicle: saline

Measured: T/C

CC=C1CN(C)C2Cc3c([nH]c4ccccc34)C(=O)CC1C2C(=O)OC (configuration not stated)
inactive: dose: 7.5 mg/kg/injection, schedule: Q01DX009 (ip), vehicle: saline + alcohol 107 % of control | dose: 15.0 mg/kg/injection, schedule: Q01DX009 (ip), vehicle: saline + alcohol 116 % of control | dose: 30.0 mg/kg/injection, schedule: Q01DX009 (ip), vehicle: saline + alcohol 106 % of control

CCOC(=O)C(C(C)=O)C(c1cc(OC)c(OC)c(OC)c1)c1cc2c(cc1O)OCO2 (configuration not stated)
inactive: [1] 95 % of control | [2] 90 % of control | [3] 89 % of control and 92 % of control | [4] 100 % of control and 93 % of control

COC1(c2ccc(C)cc2)OC12CCN(C)CC2 (configuration not stated)
inactive: [5] 106 % of control | [6] 95 % of control | [7] 106 % of control

COC12CCCC3(OCCO3)C1C(Cl)C2Cl (configuration not stated)
inactive: [3] 98 % of control | [4] 88 % of control

O=C(c1ccccc1)c1ccc2c(c1)-c1ccccc1-2
inactive: [8] 100 % of control | [9] 104 % of control | [10] 95 % of control

O[C@]12C=C[C@H](CCCC1)O2
inactive: [5] 107 % of control | [6] 108 % of control | [7] 111 % of control

Cn1c2c(c3cc(Cl)ccc31)-c1ncncc1CC2
inactive: dose: 12.5 mg/kg/injection, schedule: Q01DX005 (ip), vehicle: Klucel (hydroxypropylcellulose) (HPC) 97 % of control | [11] 97 % of control | [12] 101 % of control | dose: 100.0 mg/kg/injection, schedule: Q04DX002 (ip), vehicle: Klucel (hydroxypropylcellulose) (HPC) 92 % of control

CC(=O)Nc1ccc(S(=O)(=O)N/N=C/c2cc([N+](=O)[O-])cc([N+](=O)[O-])c2O)cc1
inactive: [3] 106 % of control | [4] 104 % of control | [13] 104 % of control

NCCSC(C[N+](=O)[O-])c1ccc2c(c1)OCO2 (configuration not stated)
inactive: [14] 119 % of control | [15] 124 % of control

O=C(O)c1cc(-c2ccc(O)c(O)c2)nc2cc3ccccc3cc12
inactive: [16] 97 % of control | [17] 108 % of control | [18] 92 % of control

COc1ccc(/C=C2/C(=O)N(c3ccccc3)N=C2C)c(OC)c1
inactive: dose: 30.0 mg/kg/injection, schedule: Q01DX005 (ip), vehicle: Klucel (hydroxypropylcellulose) (HPC) 91 % of control | [19] 88 % of control and 95 % of control | [20] 94 % of control | [21] 86 % of control

Cc1cccc(Nc2nc(C)nc3[nH]c(CC(C)C)c(C)c23)c1
inactive: [12] 91 % of control | [22] 96 % of control | [23] 98 % of control

N#Cc1c(-c2nc3ccccc3s2)c(=O)oc2cc(O)ccc12
inactive: [3] 99 % of control | [4] 95 % of control | [13] 95 % of control

CCCCCCCCCCC(Nc1nncs1)Nc1nncs1
inactive: [3] 96 % of control | [4] 95 % of control | [13] 95 % of control

CCOC1(C)CC(c2cc(OC)c(OC)c(OC)c2)c2cc3c(cc2O1)OCO3 (configuration not stated)
inactive: [19] 96 % of control | [20] 93 % of control | [21] 92 % of control

COc1ccc2c(c1)CN(Cc1c(Cl)cccc1Cl)CO2
inactive: [11] 98 % of control | [12] 115 % of control and 97 % of control | [22] 103 % of control and 92 % of control | [23] 89 % of control

CCCCCCCCCCCCC1=C(OC)C(NC(=O)CCCCCCCCCCC)=CC(=O)C1=O
inactive: dose: 50.0 mg/kg/injection, schedule: Q01DX001 (ip), vehicle: Klucel (hydroxypropylcellulose) (HPC) 92 % of control | [24] 88 % of control | [25] 90 % of control

COc1ccc(N=Nc2c(-c3cccs3)nn(C(=S)SC)c2C(F)(F)F)cc1
inactive: dose: 7.5 mg/kg/injection, schedule: Q01DX005 (ip), vehicle: saline with Tween-80 101 % of control | [1] 108 % of control | [2] 95 % of control

Nc1ccc(S(=O)(=O)c2ccc(Nc3ccnc4cc(Cl)ccc34)cc2)cc1
inactive: [12] 100 % of control | [22] 92 % of control | [23] 90 % of control

N/N=C(/c1ccc(Cl)cc1)N1CCOCC1
inactive: [26] 103 % of control | [27] 103 % of control | [28] 98 % of control

CC(C)(OC(C)(C)C(=O)O)C(=O)O
inactive: [29] 99 % of control | [30] 94 % of control | [31] 92 % of control

CC(C)c1nc2c(n1Cc1ccccc1)C=C(C(=O)c1ccccc1)S(=O)(=O)C(C(=O)c1ccccc1)=C2
inactive: [3] 96 % of control | [4] 90 % of control | [13] 92 % of control

Cc1ccc(S(=O)(=O)C(=S)N(C)N(C)C)cc1
inactive: dose: 12.5 mg/kg/injection, schedule: Q01DX009 (ip), vehicle: Klucel (hydroxypropylcellulose) (HPC) 115 % of control | dose: 25.0 mg/kg/injection, schedule: Q01DX009 (ip), vehicle: Klucel (hydroxypropylcellulose) (HPC) 117 % of control

C=CC[N+](CC=C)(CC=C)CC[N+](CC=C)(CC=C)CC=C
inactive: [14] 97 % of control | [15] 101 % of control | [32] 105 % of control

CC(NC(=O)C1CCCN1C(=O)OCc1ccccc1)C(=O)O (configuration not stated)
inactive: [5] 106 % of control | [6] 100 % of control | [7] 100 % of control

CCOC(=O)C(N)(CO)Cc1ccccc1 (configuration not stated)
inactive: dose: 50.0 mg/kg/injection, schedule: Q01DX005 (ip), vehicle: saline 103 % of control | dose: 100.0 mg/kg/injection, schedule: Q01DX005 (ip), vehicle: saline 100 % of control | dose: 200.0 mg/kg/injection, schedule: Q01DX005 (ip), vehicle: saline 99 % of control

CC1(C)Oc2cc3oc(C(=O)O)cc(=O)c3cc2-c2ccccc21
inactive: [29] 92 % of control | [30] 96 % of control | [31] 109 % of control

CC1C[C@@H]2[C@H]([C@@H](O)C[C@@]3(C)[C@H]2CC[C@]3(O)C(=O)CF)[C@@]2(C)CCC(=O)C=C12 (some centres not stated)
inactive: [8] 100 % of control | [26] 109 % of control | [9] 95 % of control | [27] 109 % of control | [28] 100 % of control

Cc1ccc(C2ON2S(=O)(=O)c2ccc(C)cc2)cc1 (configuration not stated)
inactive: [16] 113 % of control | [17] 105 % of control | [18] 100 % of control

COc1cc2c(cc1OC)C(Cc1cc(Br)sc1Br)N(C(C)=O)CC2 (configuration not stated)
inactive: [24] 101 % of control | [25] 101 % of control | dose: 400.0 mg/kg/injection, schedule: Q01DX001 (ip), vehicle: Klucel (hydroxypropylcellulose) (HPC) 113 % of control

N#CC[n+]1ccccc1
inactive: [33] 100 % of control | [34] 100 % of control | [29] 101 % of control

Cc1cc(-c2nc(-c3cc(C)c(O)c(C)c3)nc(-c3cc(C)c(O)c(C)c3)n2)cc(C)c1O
inactive: dose: 50.0 mg/kg/injection, schedule: Q04DX003 (ip), vehicle: Klucel (hydroxypropylcellulose) (HPC) 100 % of control | dose: 100.0 mg/kg/injection, schedule: Q04DX003 (ip), vehicle: Klucel (hydroxypropylcellulose) (HPC) 106 % of control | dose: 200.0 mg/kg/injection, schedule: Q04DX003 (ip), vehicle: Klucel (hydroxypropylcellulose) (HPC) 105 % of control

CCOC(=O)CCC(NC(=O)c1ccc(NCCC(C)=O)cc1)C(=O)OCC (configuration not stated)
inactive: [32] 104 % of control | [8] 105 % of control | [9] 104 % of control | [10] 105 % of control

CC1(c2ccc3ccccc3c2)C(C#N)(C#N)C1(C#N)C#N
inactive: [33] 100 % of control | [34] 102 % of control | [29] 89 % of control | [30] 103 % of control
